In patent publication US20010018060A1, “Use of particular fatty substances which make it possible to modify the physicochemical properties of the skin and/or the mucous membranes as agents preventing or reducing the adhesion of microorganisms to the latter” (priority 2000, published 2001) one finds Reduction of log/control, Log measured and Interfacial tension data, which are given here for 7 compounds.

Data set [1] has as its system Staphylococcus aureus adhering to reconstructed epidermis. It is filed as cell-based. As to conditions: for Reduction of log/control: reduction of decimal logarithm of mean number of viable Staphylococcus aureus adhering to reconstructed epidermis (EPISKIN) vs water, 25 mg fatty substance, 2 hours at 37° C., then 24 hours with bacteria. The method, then: Moreover, these fatty substances are such that the decimal logarithm of the mean number of viable bacteria adhering to reconstructed epidermis, after a test consisting in bringing the said epidermis into contact with the test compound for 2 hours at 37° C., is at least 0.3, preferably 0.5 and more preferably 1, less than that obtained by a test carried out with water under the same conditions.
The reconstructed epidermis used in the test indicated above is reconstructed human epidermis, equivalent to human skin, sold by EPISKIN.
The antiadhesion test corresponds to the protocol below:
Before bacterial adhesion, the reconstructed epidermis is brought into contact for 2 hours with 25 mg of the fatty substance to be tested at 37° C. 1 ml of bacterial suspension of Staphylococcus aureus at a concentration of 10^7 microorganisms/ml in Tryptone salt is then added thereto. After incubating for 24 hours at 37° C., the bacterial suspension is emptied and five rinsings are carried out with 1 ml of sterile distilled water. The epidermis, detached from its support, is then ground with the aid of a food processor in 18 ml of Tryptone salt. A decimal dilution is carried out on this suspension in Tryptone salt, and 1 ml of the dilution is then inoculated into 15 ml of Trypticase Soy agar and the medium is incubated for 24 hours at 37° C. The adherent and viable cells are then counted.
This antiadhesion test makes it possible to evaluate the efficacy of molecules alone or of finished products.
The figures presented opposite the fatty substance correspond to the reduction of the decimal logarithm of the mean number of viable Staphylococcus aureus adhering to reconstructed epidermis after treatment with the fatty substance under the conditions defined by the preceding test compared with the decimal logarithm of the mean number of viable Staphylococcus aureus adhering to reconstructed epidermis after treatment with water under the same conditions.
The figures presented opposite the fatty substance correspond to the value of the decimal logarithm of the mean number of viable Staphylococcus aureus adhering to reconstructed epidermis after treatment with the fatty substance under the conditions defined by the preceding test compared with the decimal logarithm of the mean number of viable Staphylococcus aureus adhering to reconstructed epidermis after treatment with water under the same conditions.

Data set [2] is described as follows: interfacial tension of the fatty substance. Type of data set: physicochemical.

In data set [1], `CCCCCCCCCCCCCCCC(=O)OCC(O)COCC(CC)CCCC` (centres unmarked) [Octoxyglyceryl palmitate] returned a Reduction of log/control of 1.85.

In the case of Tartrate of branched C12-C13 dialcohols, the Reduction of log/control in data set [1] was determined as 2.31.

In the case of `CCCCCCCCOC(=O)CCCCC(=O)OCCCCCCCC` [Dioctyl adipate], the Reduction of log/control in data set [1] is 0.9.

With `CC(C)CCCC(C)CCCC(C)CCCCC(C)CCCC(C)CCCC(C)C` (centres unmarked) [Squalane, reference compound], the Log measured in data set [1] (decimal logarithm of viable adhering Staphylococcus aureus compared with water control, the printed number is an increase /control, same test conditions) is listed as 0.27/control. Moreover, the Interfacial tension in data set [2] is on record as 46 mN/m.

For the compound `CCCCCCCCCCCCCCCCCCCCCC(=O)OCC(O)COCC(CC)CCCC` (centres unmarked) [Octoxyglyceryl behenate], in data set [1], the Reduction of log/control was found to be 2.59.

Take `CCCCCCCCCCCCCCCC(=O)OC(C)C` [Isopropyl palmitate]: the Reduction of log/control in data set [1] is listed as 1.07.

Regarding Di(C12-13 alkyl) malate, the Reduction of log/control in data set [1] is given as 3.68.
